Residues, ends and D or L forms follow the SMILES beside them. *: point of attachment. X1 = CC(CN[C@@H](Cc1cnc[nH]1)C(=O)O)C(=O)*
Legend:
Glucagon receptor = Glucagon receptor (Homo sapiens, UniProt P47871); assay: Agonist activity at GCGR expressed in HEK293 cells assessed as stimulation of cAMP production by luciferase reporter gene assay; assay type: functional, cell-based
[1] = biological target: Glucagon-like peptide 1 receptor (Homo sapiens, UniProt P43220); assay: Agonist activity at GLP1R expressed in HEK293 cells assessed as stimulation of cAMP production by luciferase reporter gene assay; assay type: functional, cell-based
Glucagon-like peptide 1 receptor, sequence (P43220 whole entry): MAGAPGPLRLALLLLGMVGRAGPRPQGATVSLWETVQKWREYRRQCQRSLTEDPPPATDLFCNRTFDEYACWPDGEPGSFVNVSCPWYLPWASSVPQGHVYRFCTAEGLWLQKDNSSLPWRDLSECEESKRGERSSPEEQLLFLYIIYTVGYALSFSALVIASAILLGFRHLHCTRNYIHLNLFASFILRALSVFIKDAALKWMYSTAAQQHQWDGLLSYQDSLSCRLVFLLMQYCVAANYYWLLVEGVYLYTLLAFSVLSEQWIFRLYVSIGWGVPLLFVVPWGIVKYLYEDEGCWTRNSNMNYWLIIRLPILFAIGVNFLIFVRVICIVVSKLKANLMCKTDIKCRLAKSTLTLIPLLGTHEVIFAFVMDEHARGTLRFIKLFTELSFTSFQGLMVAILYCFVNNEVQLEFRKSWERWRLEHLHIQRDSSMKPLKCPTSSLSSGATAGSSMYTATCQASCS

Glucagon receptor, sequence (P47871 whole entry): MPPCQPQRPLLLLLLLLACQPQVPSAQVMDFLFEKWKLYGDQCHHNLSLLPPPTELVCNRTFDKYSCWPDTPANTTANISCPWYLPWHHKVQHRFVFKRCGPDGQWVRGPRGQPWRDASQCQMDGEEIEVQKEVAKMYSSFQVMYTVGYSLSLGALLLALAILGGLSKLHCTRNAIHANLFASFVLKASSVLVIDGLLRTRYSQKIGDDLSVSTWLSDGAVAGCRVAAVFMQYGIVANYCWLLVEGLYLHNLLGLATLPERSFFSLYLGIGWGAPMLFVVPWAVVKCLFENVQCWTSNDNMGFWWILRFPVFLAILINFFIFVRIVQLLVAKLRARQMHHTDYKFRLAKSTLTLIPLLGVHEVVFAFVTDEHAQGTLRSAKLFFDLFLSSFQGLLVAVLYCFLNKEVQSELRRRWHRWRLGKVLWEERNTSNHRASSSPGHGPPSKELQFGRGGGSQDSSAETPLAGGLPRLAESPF

| EC50 (Glucagon receptor) | EC50 [1] | EC50 (Glucagon receptor; hek293) | EC50 ([1]; hek293) | SMILES |
| --- | --- | --- | --- | --- |
| 0.068 nM | 0.075 nM |  |  | CSCC[C@H](NC(=O)[C@H](CC(C)C)NC(=O)[C@H](Cc1c[nH]c2ccccc12)NC(=O)[C@H](CCC(N)=O)NC(=O)[C@@H](NC(=O)[C@H](Cc1ccccc1)NC(=O)[C@H](CCC(=O)O)NC(=O)[C@H](CCCCN)NC(=O)[C@H](C)NC(=O)[C@H](CCCNC(=N)N)NC(=O)[C@H](CCCNC(=N)N)NC(=O)[C@H](CCC(=O)O)NC(=O)[C@H](CC(=O)O)NC(=O)[C@H](CC(C)C)NC(=O)[C@H](Cc1ccc(O)cc1)NC(=O)[C@H](CCCCN)NC(=O)[C@H](CO)NC(=O)[C@H](Cc1ccc(O)cc1)NC(=O)[C@H](CC(=O)O)NC(=O)[C@H](CO)NC(=O)[C@@H](NC(=O)[C@H](Cc1ccccc1)NC(=O)[C@@H](NC(=O)CNC(=O)[C@H](CCC(N)=O)NC(=O)[C@H](CO)N[C@@H](Cc1cnc[nH]1)C(=O)O)[C@@H](C)O)[C@@H](C)O)C(C)C)C(=O)N[C@@H](CC(N)=O)C(=O)N[C@H](C(N)=O)[C@@H](C)O |
| 0.08 nM | 0.087 nM |  |  | CSCC[C@H](NC(=O)[C@H](CC(C)C)NC(=O)[C@H](Cc1c[nH]c2ccccc12)NC(=O)[C@H](C)NC(=O)[C@@H](NC(=O)[C@H](Cc1ccccc1)NC(=O)[C@H](CC(=O)O)NC(=O)[C@H](CCCCN)NC(=O)[C@H](C)NC(=O)[C@H](CCCN=C(N)N)NC(=O)[C@H](CCCN=C(N)N)NC(=O)[C@H](CCC(=O)O)NC(=O)[C@H](CC(=O)O)NC(=O)[C@H](CC(C)C)NC(=O)[C@H](Cc1ccc(O)cc1)NC(=O)[C@H](CCCCN)NC(=O)[C@H](CO)NC(=O)[C@H](Cc1ccc(O)cc1)NC(=O)[C@H](CC(=O)O)NC(=O)[C@H](CO)NC(=O)[C@@H](NC(=O)[C@H](Cc1ccccc1)NC(=O)[C@@H](NC(=O)CNC(=O)[C@H](CCC(N)=O)NC(=O)[C@H](CO)N[C@@H](Cc1cnc[nH]1)C(=O)O)[C@@H](C)O)[C@@H](C)O)C(C)C)C(=O)N[C@@H](CC(N)=O)C(=O)N[C@H](C(N)=O)[C@@H](C)O |
| 2.4 nM | 0.028 nM |  |  | CC[C@H](C)[C@H](NC(=O)[C@H](Cc1ccccc1)NC(=O)[C@H](CCC(=O)O)NC(=O)[C@H](CCCCN)NC(=O)[C@H](C)NC(=O)[C@H](C)NC(=O)[C@H](CCC(N)=O)NC(=O)[C@H](CCC(=O)O)NC(=O)[C@H](CC(=O)O)NC(=O)[C@H](CC(C)C)NC(=O)[C@H](Cc1ccc(O)cc1)NC(=O)[C@H](CCCCN)NC(=O)[C@H](CO)NC(=O)[C@H](Cc1ccc(O)cc1)NC(=O)[C@H](CC(=O)O)NC(=O)[C@H](CO)NC(=O)[C@@H](NC(=O)[C@H](Cc1ccccc1)NC(=O)[C@@H](NC(=O)CNC(=O)[C@H](CCC(=O)O)NC(=O)[C@H](CO)N[C@@H](Cc1cnc[nH]1)C(=O)O)[C@@H](C)O)[C@@H](C)O)C(=O)N[C@@H](C)C(=O)N[C@@H](Cc1c[nH]c2ccccc12)C(=O)N[C@@H](CC(C)C)C(=O)N[C@@H](CCSC)C(=O)N[C@@H](CC(N)=O)C(=O)N[C@H](C(=O)O)[C@@H](C)O |
|  |  | 0.068 nM | 0.026 nM | CC[C@H](C)[C@H](NC(=O)[C@H](Cc1ccccc1)NC(=O)[C@H](CCC(=O)O)NC(=O)[C@H](CCCCN)NC(=O)[C@H](C)NC(=O)[C@H](C)NC(=O)[C@H](CCC(N)=O)NC(=O)[C@H](CCC(=O)O)NC(=O)[C@H](CC(=O)O)NC(=O)[C@H](CC(C)C)NC(=O)[C@H](Cc1ccc(O)cc1)NC(=O)[C@H](CCCCN)NC(=O)[C@H](CO)NC(=O)[C@H](Cc1ccc(O)cc1)NC(=O)[C@H](CC(=O)O)NC(=O)[C@H](CO)NC(=O)[C@@H](NC(=O)[C@H](Cc1ccccc1)NC(=O)[C@@H](NC(=O)CNC(=O)[C@H](CCC(N)=O)NC(=O)[C@H](CO)NC(=O)[C@@H](N)Cc1cnc[nH]1)[C@@H](C)O)[C@@H](C)O)C(=O)N[C@@H](C)C(=O)N[C@@H](Cc1c[nH]c2ccccc12)C(=O)N[C@@H](CC(C)C)C(=O)N[C@@H](CCSC)C(=O)N[C@@H](CC(N)=O)C(=O)N[C@H](C(=O)O)[C@@H](C)O (H-HSQGTFTSDYSKYLDEQAAKEFIAWLMNT-OH) |
| 0.59 nM | 0.014 nM |  |  | CC[C@H](C)[C@H](NC(=O)[C@H](Cc1ccccc1)NC(=O)[C@H](CCC(=O)O)NC(=O)[C@H](CCCCN)NC(=O)[C@H](C)NC(=O)[C@H](C)NC(=O)[C@H](CCC(N)=O)NC(=O)[C@H](CCC(=O)O)NC(=O)[C@H](CC(=O)O)NC(=O)[C@H](CC(C)C)NC(=O)[C@H](Cc1ccc(O)cc1)NC(=O)[C@H](CCCCN)NC(=O)[C@H](CO)NC(=O)[C@H](Cc1ccc(O)cc1)NC(=O)[C@H](CC(=O)O)NC(=O)[C@H](CO)NC(=O)[C@@H](NC(=O)[C@H](Cc1ccccc1)NC(=O)[C@@H](NC(=O)CNC(=O)[C@H](CCC(N)=O)NC(=O)C(C)CN[C@@H](Cc1cnc[nH]1)C(=O)O)[C@@H](C)O)[C@@H](C)O)C(=O)N[C@@H](C)C(=O)N[C@@H](Cc1c[nH]c2ccccc12)C(=O)N[C@@H](CC(C)C)C(=O)N[C@@H](CCSC)C(=O)N[C@@H](CC(N)=O)C(=O)N[C@H](C(=O)O)[C@@H](C)O (stereo partly drawn) (X1-QGTFTSDYSKYLDEQAAKEFIAWLMNT-OH) |
| 3.7 nM | 0.11 nM |  |  | CSCC[C@H](NC(=O)[C@H](CC(C)C)NC(=O)[C@H](Cc1c[nH]c2ccccc12)NC(=O)[C@H](CCC(N)=O)NC(=O)[C@@H](NC(=O)[C@H](Cc1ccccc1)NC(=O)[C@H](CC(=O)O)NC(=O)[C@H](CCC(N)=O)NC(=O)[C@H](C)NC(=O)[C@H](CCCNC(=N)N)NC(=O)[C@H](CCCNC(=N)N)NC(=O)[C@H](CCC(=O)O)NC(=O)[C@H](CC(=O)O)NC(=O)[C@H](CC(C)C)NC(=O)[C@H](Cc1ccc(O)cc1)NC(=O)[C@H](CCCCN)NC(=O)[C@H](CO)NC(=O)[C@H](Cc1ccc(O)cc1)NC(=O)[C@H](CC(=O)O)NC(=O)[C@H](CO)NC(=O)[C@@H](NC(=O)[C@H](Cc1ccccc1)NC(=O)[C@@H](NC(=O)CNC(=O)[C@H](CCC(=O)O)NC(=O)[C@H](CO)N[C@@H](Cc1cnc[nH]1)C(=O)O)[C@@H](C)O)[C@@H](C)O)C(C)C)C(=O)N[C@@H](CC(N)=O)C(=O)N[C@H](C(N)=O)[C@@H](C)O |
| 0.077 nM | 0.071 nM |  |  | CSCC[C@H](NC(=O)[C@H](CC(C)C)NC(=O)[C@H](Cc1c[nH]c2ccccc12)NC(=O)[C@H](CCC(N)=O)NC(=O)[C@@H](NC(=O)[C@H](Cc1ccccc1)NC(=O)[C@H](CC(=O)O)NC(=O)[C@H](CCCCN)NC(=O)[C@H](C)NC(=O)[C@H](CCCN=C(N)N)NC(=O)[C@H](CCCN=C(N)N)NC(=O)[C@H](CCC(=O)O)NC(=O)[C@H](CC(=O)O)NC(=O)[C@H](CC(C)C)NC(=O)[C@H](Cc1ccc(O)cc1)NC(=O)[C@H](CCCCN)NC(=O)[C@H](CO)NC(=O)[C@H](Cc1ccc(O)cc1)NC(=O)[C@H](CC(=O)O)NC(=O)[C@H](CO)NC(=O)[C@@H](NC(=O)[C@H](Cc1ccccc1)NC(=O)[C@@H](NC(=O)CNC(=O)[C@H](CCC(N)=O)NC(=O)[C@H](CO)N[C@@H](Cc1cnc[nH]1)C(=O)O)[C@@H](C)O)[C@@H](C)O)C(C)C)C(=O)N[C@@H](CC(N)=O)C(=O)N[C@H](C(N)=O)[C@@H](C)O |
|  |  | 50 nM | 0.18 nM | CSCC[C@H](NC(=O)[C@H](CC(C)C)NC(=O)[C@H](Cc1c[nH]c2ccccc12)NC(=O)[C@H](CCC(N)=O)NC(=O)[C@@H](NC(=O)[C@H](Cc1ccccc1)NC(=O)[C@H](CC(=O)O)NC(=O)[C@H](CCC(N)=O)NC(=O)[C@H](C)NC(=O)[C@H](CCCNC(=N)N)NC(=O)[C@H](CCCNC(=N)N)NC(=O)[C@H](CCC(=O)O)NC(=O)[C@H](CCC(=O)O)NC(=O)[C@H](CC(C)C)NC(=O)[C@H](Cc1ccc(O)cc1)NC(=O)[C@H](CO)NC(=O)[C@H](CO)NC(=O)[C@@H](NC(=O)[C@H](CC(=O)O)NC(=O)[C@H](CO)NC(=O)[C@@H](NC(=O)[C@H](Cc1ccccc1)NC(=O)[C@@H](NC(=O)CNC(=O)[C@H](CCC(=O)O)NC(=O)[C@H](C)NC(=O)[C@@H](N)Cc1cnc[nH]1)[C@@H](C)O)[C@@H](C)O)C(C)C)C(C)C)C(=O)N[C@@H](CC(N)=O)C(=O)N[C@H](C(=O)O)[C@@H](C)O (H-HAEGTFTSDVSSYLEERRAQDFVQWLMNT-OH) |
| 0.049 nM | 0.17 nM |  |  | CSCC[C@H](NC(=O)[C@H](CC(C)C)NC(=O)[C@H](Cc1c[nH]c2ccccc12)NC(=O)[C@H](CCC(N)=O)NC(=O)[C@@H](NC(=O)[C@H](Cc1ccccc1)NC(=O)[C@H](CC(=O)O)NC(=O)[C@H](CCC(N)=O)NC(=O)[C@H](C)NC(=O)[C@H](CCCN=C(N)N)NC(=O)[C@H](CCCN=C(N)N)NC(=O)[C@H](CCC(=O)O)NC(=O)[C@H](CC(=O)O)NC(=O)[C@H](CC(C)C)NC(=O)[C@H](Cc1ccc(O)cc1)NC(=O)[C@H](CCCCN)NC(=O)[C@H](CO)NC(=O)[C@H](Cc1ccc(O)cc1)NC(=O)[C@H](CC(=O)O)NC(=O)[C@H](CO)NC(=O)[C@@H](NC(=O)[C@H](Cc1ccccc1)NC(=O)[C@@H](NC(=O)CNC(=O)[C@H](CCC(N)=O)NC(=O)[C@H](CO)N[C@@H](Cc1cnc[nH]1)C(=O)O)[C@@H](C)O)[C@@H](C)O)C(C)C)C(=O)N[C@@H](CC(N)=O)C(=O)N[C@H](C(N)=O)[C@@H](C)O |

Source: ChEMBL document CHEMBL1221226 (Nat Chem Biol, 2009)
